Assay [1] has as its target T1, FGFR1 (Homo sapiens, UniProt P11362).
Assay [2] has as its target T1, FGFR1. The conditions noted are these: cited from earlier work.
Assay [3] concerns the target T2, VEGFR2 (Homo sapiens, UniProt P35968). The following applies: relative IC50: reported IC50 toward VEGFR2 divided by next lowest reported IC50 to any gene target.
Assay [4] relates to VEGFR2 and FGFR1. Nature of the assay: Selection of compounds that selectively inhibit both VEGFR2 and FGFR1 (average relative IC50).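 Note: relative IC50 is the IC50 for VEGFR2 or FGFR1 divided by the next-lowest IC50 reported against any target gene.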 Type of assay: biochemical.
Assay [5] has as its system any gene target. The following applies: cited from earlier work.
Assay [6] deals with Zmpste24−/− mice. Nature of the assay: Mouse model of progeria: body fat (Echo MRI), lean muscle, body weight, intrascapular brown fat. Format: in vivo. The following applies: oral gavage QD5 for 56 days; for Body fat (Echo MRI) vs vehicle / Intrascapular brown fat mass (percent of body weight) vs vehicle: Brivanib alaninate 50, SU5402 25, Cediranib maleate 5, Regorafenib 10, infigratinib 5 mg/kg; for Body weight vs vehicle / Lean muscle vs vehicle: SU5402 25, Cediranib maleate 5, Regorafenib 10, infigratinib 5 mg/kg. As for the experimental part:
Zmpste24 mice, a progeria model mouse line, were dosed with either 50 mg/kg Brivanib alaninate for 56 days, 5 days on, 2 days off (QD5), or vehicle alone. The dose was administered via oral gavage as a suspension of 18% (w/v) PEG400 2% (w/v) Tween-80 in water . The vehicle alone was 18% (w/v) PEG400 2% (w/v) Tween-80 in water.
The body fat of the mice was measured by an Echo MRI throughout the treatment.
Samples of intrascapular brown adipose tissue from 15 week old mice treated with Brivanib Alaninate or vehicle for 56 days underwent Hematoxylin and Eosin (H&E) staining.
Zmpste24−/− mice, a progeria model mouse line, were dosed with either 25 mg/kg SU5402 for 56 days, 5 days on, 2 days off (QD5) or vehicle alone. The dose was administered via oral gavage as a suspension of 5% (w/v) DMSO 9% (w/v) PEG400 1% (w/v) Tween-80 in saline. The vehicle alone was 5% (w/v) DMSO 9% (w/v) PEG400 1% (w/v) Tween-80 in saline.
The body fat of the mice was measured by an Echo […]. Lean muscle and body weight were also measured.
The dose was administered via oral gavage as a suspension of 18% (w/v) PEG400 2% (w/v) Tween-80 in water . The vehicle alone was 18% (w/v) PEG400 2% (w/v) Tween-80 in water.
The body fat of the mice was measured by an Echo MRI. […] There was also no alteration of intrascapular brown adipose tissue mass (FIG. 5D).
The dose was administered via oral gavage as a suspension of 18% (w/v) PEG400 2% (w/v) Tween-80 in water. The vehicle alone was 18% (w/v) PEG400 2% (w/v) Tween-80 in water.
The body fat of the mice was measured by an Echo MM. […] There was also no alteration of intrascapular brown adipose tissue mass (FIG. 6D).
The body fat of the mice was measure by an Echo MRI. […] There was also no alteration of intrascapular brown adipose tissue mass (FIG. 7D). […]

The target in assay [7] is T2, VEGFR2. The conditions noted are these: read-out: IC50 VEGFR2; cited from earlier work.
Setting [8] is: relative IC50: reported IC50 toward FGFR1 divided by next lowest reported IC50 to any gene target.
The mark [9] stands for this setting: reported IC50 to FGFR1, read-out: FGFR1 IC50_μM.
Setting [10] is: average of VEGFR2 and FGFR1 relative IC50.
The mark [11] stands for this setting: lowest reported IC50 to any gene target, read-out: Min IC50_μM.
Setting [12] is: lowest reported IC50 to any gene target, read-out: min IC50.
Setting [13] is: Table 2, list of selective inhibitors of FGFR1, read-out: FGFR1 IC50_μM: reported IC50 to FGFR1.
Where [14] appears, read: Table 2, lowest reported IC50 to any gene target, read-out: Min IC50_μM.

pIC50: −log10 of the molar value. Like-named read-outs stand apart in the source and are kept apart here.

T1 sequence (P11362 22-822, species assumed): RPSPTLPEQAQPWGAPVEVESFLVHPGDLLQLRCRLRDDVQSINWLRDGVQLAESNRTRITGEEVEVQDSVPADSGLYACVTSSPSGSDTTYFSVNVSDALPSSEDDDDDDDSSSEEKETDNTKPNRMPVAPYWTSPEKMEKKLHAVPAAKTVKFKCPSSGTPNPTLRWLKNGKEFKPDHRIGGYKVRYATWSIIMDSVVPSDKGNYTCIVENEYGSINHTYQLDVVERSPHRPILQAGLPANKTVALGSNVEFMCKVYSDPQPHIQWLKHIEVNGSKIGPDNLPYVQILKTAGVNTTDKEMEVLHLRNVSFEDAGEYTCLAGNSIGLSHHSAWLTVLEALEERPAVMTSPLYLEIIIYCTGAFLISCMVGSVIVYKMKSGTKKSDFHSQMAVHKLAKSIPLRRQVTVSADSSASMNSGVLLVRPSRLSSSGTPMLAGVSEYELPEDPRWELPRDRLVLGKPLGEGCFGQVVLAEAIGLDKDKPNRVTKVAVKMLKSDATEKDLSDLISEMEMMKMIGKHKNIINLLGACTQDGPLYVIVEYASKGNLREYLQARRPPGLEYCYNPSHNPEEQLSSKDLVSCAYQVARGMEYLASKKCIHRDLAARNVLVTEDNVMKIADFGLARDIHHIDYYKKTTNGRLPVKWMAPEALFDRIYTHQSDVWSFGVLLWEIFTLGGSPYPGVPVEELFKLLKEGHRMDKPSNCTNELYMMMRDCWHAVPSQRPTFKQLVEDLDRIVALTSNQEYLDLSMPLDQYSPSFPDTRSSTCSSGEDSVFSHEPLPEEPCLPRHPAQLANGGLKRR
T2 sequence (P35968 20-1356, species assumed): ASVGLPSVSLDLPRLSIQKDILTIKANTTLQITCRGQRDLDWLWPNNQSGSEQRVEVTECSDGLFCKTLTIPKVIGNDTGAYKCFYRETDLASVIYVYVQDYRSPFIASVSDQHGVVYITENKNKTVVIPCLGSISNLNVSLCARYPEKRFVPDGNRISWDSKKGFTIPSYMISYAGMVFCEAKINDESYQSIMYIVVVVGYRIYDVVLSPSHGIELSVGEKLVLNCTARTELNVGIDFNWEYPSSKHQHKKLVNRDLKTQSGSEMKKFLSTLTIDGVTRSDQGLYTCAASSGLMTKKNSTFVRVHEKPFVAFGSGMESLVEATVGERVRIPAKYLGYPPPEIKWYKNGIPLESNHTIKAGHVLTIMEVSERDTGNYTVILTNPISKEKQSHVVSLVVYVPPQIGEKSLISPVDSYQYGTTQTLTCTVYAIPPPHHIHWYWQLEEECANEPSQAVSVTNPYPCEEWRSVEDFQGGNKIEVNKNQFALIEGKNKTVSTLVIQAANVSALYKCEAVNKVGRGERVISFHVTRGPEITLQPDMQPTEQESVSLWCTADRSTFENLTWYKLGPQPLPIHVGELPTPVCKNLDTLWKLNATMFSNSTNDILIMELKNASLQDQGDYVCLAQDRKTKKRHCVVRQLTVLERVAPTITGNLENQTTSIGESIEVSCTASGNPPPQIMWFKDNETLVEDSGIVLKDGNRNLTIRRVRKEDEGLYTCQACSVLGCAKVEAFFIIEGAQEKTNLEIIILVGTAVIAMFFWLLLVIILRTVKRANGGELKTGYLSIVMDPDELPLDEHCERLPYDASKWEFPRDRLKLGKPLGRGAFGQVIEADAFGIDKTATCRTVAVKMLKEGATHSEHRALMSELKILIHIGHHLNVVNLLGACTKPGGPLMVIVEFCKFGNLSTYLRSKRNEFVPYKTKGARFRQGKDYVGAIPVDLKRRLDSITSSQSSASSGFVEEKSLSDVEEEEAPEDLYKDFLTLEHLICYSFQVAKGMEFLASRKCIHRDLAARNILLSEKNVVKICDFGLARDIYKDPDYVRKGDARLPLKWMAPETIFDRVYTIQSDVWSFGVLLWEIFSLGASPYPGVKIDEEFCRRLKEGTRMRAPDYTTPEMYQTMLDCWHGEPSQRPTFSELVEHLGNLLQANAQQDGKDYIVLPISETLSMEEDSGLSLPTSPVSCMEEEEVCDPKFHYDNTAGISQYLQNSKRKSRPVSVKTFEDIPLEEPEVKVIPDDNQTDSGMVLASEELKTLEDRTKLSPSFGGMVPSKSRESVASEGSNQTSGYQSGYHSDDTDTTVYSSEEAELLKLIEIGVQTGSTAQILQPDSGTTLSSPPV

For `CONC(=O)c1cc(Nc2ncnn3cc(-c4nnco4)c(C(C)C)c23)c(F)cc1F` [compound 11464544, 2,4-Difluoro-5-(5-isopropyl-6-[1,3,4]oxadiazol-2-yl-pyrrolo[2,1-f][1,2,4]triazin-4-ylamino)-N-methoxy-benzamide, reference compound], the “FGFR1, rIC50” value in assay [1] (setting [8]) came to 1.0. The pIC50 in assay [2] (setting [9]), in assay [5] (setting [11]) and in assay [5] (setting [12]) was 7.27 throughout. Besides, the “VEGFR2, rIC50” value in assay [3] worked out at 1.4. For the same molecule, the “avg rIC50” value in assay [4] (setting [10]) was 1.2.

Consider `CONC(=O)c1cc(Nc2ncnn3cc(-c4nnc(C)o4)c(C(C)C)c23)c(F)cc1F` [compound 10478569, 2,4-Difluoro-5-[5-isopropyl-6-(5-methyl-[1,3,4]oxadiazol-2-yl)-pyrrolo[2,1-f][1,2,4]triazin-4-ylamino]-N-methoxy-benzamide, reference compound], for which the “FGFR1, rIC50” value in assay [1] (setting [8]) is listed as 1.0. For the same molecule, the pIC50 in assay [2] (setting [9]) was 8.19. In addition, the “VEGFR2, rIC50” value in assay [3] is recorded as 1.2. Further, in assay [4] (setting [10]), the “avg rIC50” value is given as 1.1.

Consider `COc1cc(CCc2cc(Nc3ncnc4cc(N5CCN6CCCCC6C5)ccc34)n[nH]2)cc(OC)c1` (centres unmarked) [compound 127047969], for which the pIC50 in assay [2] (setting [9]) and in assay [5] (setting [11]) was 9.70 in each case.

`COC(=O)C1=C(c2ccccc2)c2cc(C)ccc2C1=O.COC(=O)C1=C(c2ccccc2)c2ccc(C)cc2C1=O` [compound 44330102]: the pIC50 in assay [2] (setting [9]) and in assay [5] (setting [11]) was 5.19 in each case.

With `CC(C)(C)NC(=O)Nc1nc2nc(N)ncc2cc1-c1ccccc1` [compound 5329111], the pIC50 in assay [2] (setting [9]) and in assay [5] (setting [11]) was 5.43 throughout.

Regarding `Cc1oc2c(c1C(=O)N1CC[C@H](N)C1)C(=O)c1c(c(O)c3ccccc3c1O)C2=O` [compound 137631210], the pIC50 in assay [2] (setting [9]) and in assay [5] (setting [11]) was 5.30 each time.

`Cc1cc(C)c(C)c(-c2cc3cnc(NCCCN4CCN(C)CC4)nc3nc2NC(=O)NC(C)(C)C)c1C` [compound 10602350]: the pIC50 in assay [2] (setting [9]) and in assay [5] (setting [11]) was 6.85 throughout.

Turning to `Cc1c[nH]c(/C=C2\C(=O)Nc3ccccc32)c1CCC(=O)O` [compound 5289418, 3-[(3-(2-Carboxyethyl)-4-methylpyrrol-2-YL)methylene]-2-indolinone], the “FGFR1, rIC50” value in assay [1] was 1.5. For the same molecule, in assay [6], the “Body fat (Echo MRI) vs vehicle” value is on record as “increase in body mass starting at 9 weeks of age”, the “Intrascapular brown fat mass (percent of body weight) vs vehicle” value is on record as “made up for more of the body weight percent”, the “Body weight vs vehicle” value is “increase in body weight starting at 12 weeks of age” and the “Lean muscle vs vehicle” value is “increase in lean muscle starting at 15 weeks of age”. In addition, the “VEGFR2, rIC50” value in assay [3] was 0.7. Besides, in assay [4], the “avg rIC50” value was found to be 1.1. Moreover, the pIC50 in assay [5] (read-out: Min IC50_μM) is 7.52. Also, in assay [5] (read-out: min IC50), the pIC50 was 7.52.

Regarding `NC(=O)C1=C(c2ccc(Cl)cc2)c2ccccc2C1=O` [compound 44330203], the pIC50 in assay [2] (setting [9]) and in assay [5] (setting [11]) was 5.27 in each case.

For Cediranib maleate, in assay [6], the “Body fat (Echo MRI) vs vehicle” value is recorded as “did not show an increase”, the “Intrascapular brown fat mass (percent of body weight) vs vehicle” value is “no alteration”, the “Body weight vs vehicle” value is given as “did not show an increase” and the “Lean muscle vs vehicle” value is reported as “did not show an increase”. In assay [7], the pIC50 was 9.00.

`CC(C)(C)NC(=O)Nc1nc2nc(N)ncc2cc1-c1c(Cl)cccc1Cl` [compound 5328112]: the pIC50 is 6.96 in assay [2] (setting [9]) and 6.89 in assay [5] (setting [11]).

Regarding `COC(=O)C1=C(c2ccccc2)c2ccncc2C1=O` [compound 44330158], the pIC50 in assay [2] (setting [9]) and in assay [5] (setting [11]) was 5.17 throughout.

Regarding `C=CC(=O)Nc1ccc(CN(C(=O)Nc2c(Cl)c(OC)cc(OC)c2Cl)c2cc(Nc3ccc(N4CCN(C)CC4)cc3)ncn2)cc1` [compound 73707531], the pIC50 in assay [2] (setting [9]) and in assay [5] (setting [11]) was 9.00 in each case.

Take `CCN1CCN(c2ccc(Nc3cc(N(C)C(=O)Nc4c(Cl)c(OC)cc(OC)c4Cl)ncn3)cc2)CC1` [Infigratinib]: in assay [6], the “Body fat (Echo MRI) vs vehicle” value was “did not show an increase”, the “Intrascapular brown fat mass (percent of body weight) vs vehicle” value is recorded as “no alteration”, the “Body weight vs vehicle” value is given as “did not show an increase” and the “Lean muscle vs vehicle” value is recorded as “did not show an increase”.

For the molecule `C=CC(=O)N1CC[C@H](n2cc(-c3cc4cc(C)cc(OC)c4s3)c3c(N)ncnc32)C1` [compound 138617501], the pIC50 in assay [2] (setting [13]) was 9.52; in assay [5] (setting [14]), 9.10.

In the case of `CONC(=O)c1cc(Nc2ncnn3cc(-c4nnc(C(F)(F)F)o4)c(C(C)C)c23)c(F)cc1F` [compound 11488852, 2,4-Difluoro-5-[5-isopropyl-6-(5-trifluoromethyl-[1,3,4]oxadiazol-2-yl)-pyrrolo[2,1-f][1,2,4]triazin-4-ylamino]-N-methoxy-benzamide, reference compound], in assay [1] (setting [8]), the “FGFR1, rIC50” value was 1.0. Also, the pIC50 in assay [2] (read-out: FGFR1 IC50_μM, reported IC50 to FGFR1) was 7.48; in assay [5] (setting [11]) it was 7.48; in assay [5] (setting [12]), 7.48. The “VEGFR2, rIC50” value in assay [3] was 1.1. Further, the “avg rIC50” value in assay [4] (setting [10]) is given as 1.0.

As for `NS(=O)(=O)c1ccc2c(c1)/C(=C/c1[nH]c3c(c1CCC(=O)O)CCCC3)C(=O)N2` [compound 5329165, Indolin-2-one deriv. 9c, reference compound], the “FGFR1, rIC50” value in assay [1] (setting [8]) amounted to 0.3. Besides, the values for the pIC50 in assay [2] (setting [13]), in assay [5] (setting [14]) and in assay [5] (setting [12]) were 6.70, 6.22 and 6.70, respectively. In assay [3], the “VEGFR2, rIC50” value is 3.0. In addition, the “avg rIC50” value in assay [4] (setting [10]) was 1.7.

Take `O=c1[nH]c(=O)n(-c2ccc(Oc3ccccc3)cc2)c(=O)n1-c1ccccc1` [compound 139434105]: the pIC50 was 6.05 in assay [2] (setting [13]) and 5.89 in assay [5] (setting [14]).

The values are drawn from patent US20240156825A1, “USE OF SELECTIVE VEGFR2 AND FGFR1 INHIBITORS” (Fountain Therapeutics Inc., priority 2022, published 2024).
